Assay results published in patent US6841556B2, “Pyrazoloisoquinoline derivatives for inhibiting NFκB-inducing kinase” (Aventis Pharma Deutschland GmbH, priority 2002, dated 2005).

Experiments:
[1] = system: human peripheral blood lymphocytes; assay: Cytotoxicity by LDH release, LPS-stimulated human peripheral blood lymphocytes; assay type: cell-based
Experimental: (§1) The pyrazoloisoquinoline derivatives according to the invention were tested for inhibitory activity against NIK in various in vitro assay systems. In this connection, human peripheral blood lymphocytes were preincubated for 1 h with different concentrations of the compounds and then stimulated for 24 h with LPS or IL1β. After that, a commercially obtainable ELISA test kit was used to measure the release of TNFα in the culture supernatant, and the IC50 for the given compound was determined. The cytotoxicity was measured by way of LDH release using a commercially obtainable test kit and the LD50 for the given compound was determined.

[2] = system: human peripheral blood lymphocytes; assay: Cytotoxicity by LDH release, IL1β-stimulated human peripheral blood lymphocytes; assay type: cell-based
Experimental: as §1

SMILES | Cytotoxicity LD50 [1] | Cytotoxicity LD50 [2]
Cc1n[nH]c2c1nc(-c1cccc(O)c1)c1ccccc12 [Example 3, 3-(3-Methyl-1H-pyrazolo[4,3-c]isoquinolin-5-yl)phenol] | >100 µM | >100 µM
c1ccc(-c2nc3c(-c4ccccc4)n[nH]c3c3ccccc23)cc1 [Example 1, 3,5-Diphenyl-1H-pyrazolo[4,3-c]isoquinoline] | >100 µM | >100 µM
COc1cccc(-c2nc3c(C)n[nH]c3c3ccccc23)c1 [Example 2, 5-(3-Methoxyphenyl)-3-methyl-1H-pyrazolo[4,3-c]isoquinoline] | >100 µM | >100 µM
